In patent US9415087B2, “Compositions and methods for treating coronavirus infection” (LUDWIG-MAXIMILIANS-UNIVERSITAET MUENCHEN, priority 2014, dated 2016):
“Also recorded” adds a separate entry of the source. Like-named read-outs stand apart in the source and are kept apart here.

Tests used:
[1] = test system: HCoV-NL63; experiment: microbe, parasite or virus in culture; assay type: cell-based; details: read-out: Inhibition of HCoV-NL63 in CaCo-2 EC50
[2] = test system: NFAT-GFP; experiment: NFAT-GFP nuclear translocation assay; details: 40 nM compound, ionomycin 2 μM; yes = non-immunosuppressive
[3] = biological target: human CypA (Homo sapiens, UniProt P62937); assay type: biochemical; details: protease-coupled PPIase assay; read-out: In vitro inhibition human CypA IC50
[4] = biological target: CnA (Homo sapiens, UniProt P62937+P63098+Q08209); assay type: biochemical; details: for IC50: read-out: In vitro inhibition CnA IC50
[5] = test system: NFAT; experiment: NFAT reporter gene assay (luciferase) in Jurkat cells; assay type: cell-based; details: luciferase-coupled NFAT reporter gene assay; for IC50: read-out: In vitro inhibition NFAT reporter gene assay IC50
[6] = test system: lymphocyte proliferation; details: Sadeg et al. 1993; cited from earlier work
[7] = test system: HCoV-229E-LUC; experiment: microbe, parasite or virus in culture; assay type: cell-based; details: for inhibition of 229E-LUC replication (in words): Huh-7.5 cells
[8] = test system: Feline Coronavirus (FCoV-LUC); experiment: FCoV-LUC replication in Felis catus whole fetus (fcwf) cells, Renilla luciferase; assay type: cell-based; details: micromolar concentration, FIG. 10
[9] = test system: Mouse Hepatitis Virus (MHV-LUC); experiment: MHV-LUC replication in L929 cells, luciferase activity; details: micromolar concentration, FIG. 12
[10] = test system: SARS-CoV-Replicon RNA; assay type: cell-based; details: BHK-21 cells, 20 hours, FIG. 11
[11] = test system: HCoV-NL63 N protein; experiment: Western blot of N protein expression in HCoV-NL63-infected CaCo2 cells; assay type: cell-based; details: 48 hours, 0 to 20 μM
[12] = test system: HCoV-229E N protein; assay type: cell-based; details: 48 h
[13] = Human coronavirus NL63, Caco-2, 48 h
[14] = Human coronavirus 229E, Huh7.5, 18 h, read-out: EC50 HCoV-229E-LUC, 18 hrs p.I., Huh-7.5, MOI=0.1
[15] = Human coronavirus 229E, Huh7.5, 48 h, read-out: EC50 HCoV-229E-LUC, 48 hrs p.I., Huh-7.5, MOI=0.1

Sequence of human CypA (P62937 whole entry): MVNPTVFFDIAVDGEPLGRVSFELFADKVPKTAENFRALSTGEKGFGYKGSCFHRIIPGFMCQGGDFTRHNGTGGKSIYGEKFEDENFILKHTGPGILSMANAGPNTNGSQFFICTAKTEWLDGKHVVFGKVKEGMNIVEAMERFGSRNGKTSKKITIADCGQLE
Sequence of CnA (P62937 whole entry, other chains not shown): as the sequence (P62937 whole entry) above
Sequence of CnA (P63098 2-170, other chains not shown): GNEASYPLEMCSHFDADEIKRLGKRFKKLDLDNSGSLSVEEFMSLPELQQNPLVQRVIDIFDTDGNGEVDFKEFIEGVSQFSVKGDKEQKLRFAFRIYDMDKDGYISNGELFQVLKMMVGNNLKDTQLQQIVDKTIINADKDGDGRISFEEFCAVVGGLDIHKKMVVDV

## CCC1NC(=O)C(C(O)C(C)Cc2nc3ccc(-c4nc5ccccc5s4)cc3[nH]2)N(C)C(=O)C(C(C)C)N(C)C(=O)C(CC(C)C)N(C)C(=O)C(CC(C)C)N(C)C(=O)C(C)NC(=O)C(C)NC(=O)C(CC(C)C)N(C)C(=O)C(C(C)C)NC(=O)C(CC(C)C)N(C)C(=O)CN(C)C1=O (centres unmarked) [Compound 5]
[1]
  EC50: 2300 nM
[2]
  NFAT-GFP translocation in HEK-293 cells (to the nucleus): yes
[3]
  IC50: 16.6 nM
[4]; binary PPIase/drug complexes
  IC50: > 10000 nM
[5]
  IC50: 1200 nM

## C/C=C/C[C@@H](C)[C@@H](O)[C@H]1C(=O)N[C@@H](C(C)C)C(=O)N(C)CC(=O)N(C)[C@@H](CC(C)C)C(=O)N[C@@H](C(C)C)C(=O)N(C)[C@@H](CC(C)C)C(=O)N[C@@H](C)C(=O)N[C@H](C)C(=O)N(C)[C@@H](CC(C)C)C(=O)N(C)[C@@H](CC(C)C)C(=O)N(C)[C@@H](C(C)C)C(=O)N1C [CsD]
[1]
  EC50: 2500 nM
[2]
  NFAT-GFP translocation in HEK-293 cells (to the nucleus): remained in the cytoplasm and no
[6]
  immunosuppressant activity in lymphocyte proliferation assays relative to CsA: about 10 % of the CsA activity

## C=CC[C@@H]1/C=C(\C)C[C@H](C)C[C@H](OC)[C@H]2O[C@@](O)(C(=O)C(=O)N3CCCC[C@H]3C(=O)O[C@H](/C(C)=C/[C@@H]3CC[C@@H](O)[C@H](OC)C3)[C@H](C)[C@@H](O)CC1=O)[C@H](C)C[C@@H]2OC [FK506]
[1]; [13]
  EC50: 6600 nM
[7]; [14]
  EC50: 2960 nM
[7]; [15]
  EC50: 860 nM

## C/C=C/C[C@@H](C)[C@@H](O)[C@H]1C(=O)N[C@@H](CC)C(=O)N(C)CC(=O)N(C)[C@@H]([C@@H](C)CC)C(=O)N[C@@H](C(C)C)C(=O)N(C)[C@@H](CC(C)C)C(=O)N[C@@H](C)C(=O)N[C@H](C)C(=O)N(C)[C@@H](CC(C)C)C(=O)N(C)[C@@H](CC(C)C)C(=O)N(C)[C@@H](C(C)C)C(=O)N1C [NIM811]
[1]; [13]
  EC50: 800 nM
[8]
  inhibition of feline Coronavirus spread (in words): inhibits spread
[9]
  inhibition of murine Coronavirus spread (in words): inhibits spread
[2]
  NFAT-GFP translocation in HEK-293 cells (to the nucleus): yes
[10]
  inhibition of SARS-CoV-RNA replicon propagation (in words): inhibition
[7]
  inhibition of 229E-LUC replication (in words): low micromolar range
[7]; [14]
  EC50: 3110 nM
[7]; [15]
  EC50: 1190 nM
[11]
  concentration at which HCoV-NL63 N-protein decreases: 1.25 µM

## CCC1NC(=O)C(C(O)C(C)CC=CCN(C)C)N(C)C(=O)C(C(C)C)N(C)C(=O)C(CC(C)C)N(C)C(=O)C(CC(C)C)N(C)C(=O)C(C)NC(=O)C(C)NC(=O)C(CC(C)C)N(C)C(=O)C(C(C)C)NC(=O)C(CC(C)C)N(C)C(=O)CN(C)C1=O (centres unmarked) [Compound 2]
[1]
  EC50: 7900 nM
[2]
  NFAT-GFP translocation in HEK-293 cells (to the nucleus): yes

## CCOP(=O)(CC=CCC(C)C(O)C1C(=O)NC(CC)C(=O)N(C)CC(=O)N(C)C(CC(C)C)C(=O)NC(C(C)C)C(=O)N(C)C(CC(C)C)C(=O)NC(C)C(=O)NC(C)C(=O)N(C)C(CC(C)C)C(=O)N(C)C(CC(C)C)C(=O)N(C)C(C(C)C)C(=O)N1C)OCC (mixture of isomers) [Compound 1]
[1]
  EC50: 1600 nM
[2]
  NFAT-GFP translocation in HEK-293 cells (to the nucleus): yes
[3]
  IC50: 9.1 nM
[4]; binary PPIase/drug complexes
  In vitro inhibition CnA IC50: could not be inhibited at all and no
[5]
  In vitro inhibition NFAT reporter gene assay IC50: no

## CCC1NC(=O)C(C(O)C(C)Cc2nc3ccc(C(=O)c4ccccc4)cc3[nH]2)N(C)C(=O)C(C(C)C)N(C)C(=O)C(CC(C)C)N(C)C(=O)C(CC(C)C)N(C)C(=O)C(C)NC(=O)C(C)NC(=O)C(CC(C)C)N(C)C(=O)C(C(C)C)NC(=O)C(CC(C)C)N(C)C(=O)CN(C)C1=O (centres unmarked) [Compound 4]
[1]
  EC50: 8100 nM
[2]
  NFAT-GFP translocation in HEK-293 cells (to the nucleus): yes
[3]
  IC50: 14.1 nM
[4]; binary PPIase/drug complexes
  IC50: ~10000 nM
[5]
  IC50: 1300 nM

## C/C=C/C[C@@H](C)[C@@H](O)[C@H]1C(=O)N[C@@H](CC)C(=O)N(C)[C@H](C)C(=O)N(CC)[C@@H](C(C)C)C(=O)N[C@@H](C(C)C)C(=O)N(C)[C@@H](CC(C)C)C(=O)N[C@@H](C)C(=O)N[C@H](C)C(=O)N(C)[C@@H](CC(C)C)C(=O)N(C)[C@@H](CC(C)C)C(=O)N(C)[C@@H](C(C)C)C(=O)N1C [ALV, Alisporivir]
[1]; [13]
  EC50: 800 nM
[8]
  inhibition of feline Coronavirus spread (in words): inhibits spread
[9]
  inhibition of murine Coronavirus spread (in words): inhibits spread
[2]
  NFAT-GFP translocation in HEK-293 cells (to the nucleus): yes
[10]
  inhibition of SARS-CoV-RNA replicon propagation (in words): inhibition
[7]
  inhibition of 229E-LUC replication (in words): low micromolar range
[7]; [14]
  EC50: 2770 nM
[7]; [15]
  EC50: 1370 nM
[11]
  concentration at which HCoV-NL63 N-protein decreases: 1.25 µM
[12]; Western blot
  concentration at which HCoV-229E N protein is not detectable anymore: 1.25 µM

## C/C=C/C[C@@H](C)[C@@H](O)[C@H]1C(=O)N[C@@H](CC)C(=O)N(C)CC(=O)N(C)[C@@H](CC(C)C)C(=O)N[C@@H](C(C)C)C(=O)N(C)[C@@H](CC(C)C)C(=O)N[C@@H](C)C(=O)N[C@H](C)C(=O)N(C)[C@@H](CC(C)C)C(=O)N(C)[C@@H](CC(C)C)C(=O)N(C)[C@H](C(C)C)C(=O)N1C [CsH, Cyclosporin H]
[7]
  inhibition of 229E-LUC replication (in words): slight residual inhibitory activity; also recorded: do not inhibit
[12]; at 20 μM
  HCoV-229E N protein synthesis (in words): allow significant N protein synthesis

## CCC1NC(=O)C(C(O)C(C)Cc2nc3ccc(C(=O)OC)cc3[nH]2)N(C)C(=O)C(C(C)C)N(C)C(=O)C(CC(C)C)N(C)C(=O)C(CC(C)C)N(C)C(=O)C(C)NC(=O)C(C)NC(=O)C(CC(C)C)N(C)C(=O)C(C(C)C)NC(=O)C(CC(C)C)N(C)C(=O)CN(C)C1=O (centres unmarked) [Compound 3]
[1]
  EC50: 1100 nM
[2]
  NFAT-GFP translocation in HEK-293 cells (to the nucleus): yes
[3]
  IC50: 11.9 nM
[4]
  IC50: 6900 nM
[7]; 18 hrs p.I., Huh-7.5, MOI=0.1, read-out: EC50 HCoV-229E-LUC
  EC50: 2050 nM
[7]; 48 hrs p.I., Huh-7.5, MOI=0.1, listed as Comp. 3, read-out: EC50 HCoV-229E-LUC
  EC50: 920 nM
[7]; 48 hrs p.I., Huh-7.5, MOI=0.1, read-out: EC50 HCoV-229E-LUC
  EC50: 970 nM
[7]
  inhibition of 229E-LUC replication (in words): low micromolar range
[11]
  concentration at which HCoV-NL63 N-protein decreases: 1.25 µM
